Measured values: ChEMBL document CHEMBL1268812, “Piperidine-based renin inhibitors: upper chain optimization” (Bioorg Med Chem Lett, 2010)

Tests used:
Settings in all cases: rat, po, 3 mg/kg
[1] = in vivo
Description: Half life in transgenic rat harboring human angiotensinogen and human renin gene at 3 mg/kg, po

[2] = in vivo; remark: listed apart in the source
Description: Clearance in transgenic rat harboring human angiotensinogen and human renin gene at 3 mg/kg, po

[3] = in vivo; remark: listed apart in the source

Row | half-life [1] [h] | CL/F [2] [mL/min/kg] | bioavailability [3] [%] | SMILES
1 | 3.6 | 29 | 28 | COCCCc1ccc(Cl)c(CN(C(=O)[C@H]2CNCC[C@@H]2c2ccc(OCCOc3c(Cl)cc(C)cc3Cl)nc2)C2CC2)c1
2 | 5.8 | 21 | 35 | COCCc1ccc(Cl)c(CN(C(=O)[C@H]2CNCC[C@@H]2c2ccc(OCCOc3c(Cl)cc(C)cc3Cl)nc2)C2CC2)c1
3 | 5.6 | 35 | 8 | COCCc1ccc(Cl)c(CN(C(=O)[C@H]2CNCC[C@@H]2c2ccc(N3CC[C@@H](Oc4c(Cl)cc(C)cc4Cl)C3)nc2)C2CC2)c1
